Assay results taken from PMC9133015 (Nature Communications, 2022).
Values joined by “and” are separate entries in the source; they are usually repeats but may differ in a detail not shown here. Equal entries are not always repeated. Where two headings read alike, the source gives them in different places.

What was measured:
Assay in all cases: Kinase inhibitor specificity profiling (Reaction Biology Corporation)
Type in all cases: biochemical
Design in all cases: % Enzyme Activity (relative to DMSO controls): concentration or dose not given beside the values
[1] = target: T1, panel of 370 protein kinases (Homo sapiens, UniProt Q07912); conditions: 2 h, kinase ACK1; read-out: % Enzyme Activity (relative to DMSO controls)
T1 construct: purchased Reaction Biology Corporation (assay service)

[2] = target: T2, panel of 370 protein kinases (Homo sapiens, UniProt P27448); conditions: 2 h, kinase MARK3; read-out: % Enzyme Activity (relative to DMSO controls)
T2 construct: purchased Reaction Biology Corporation (assay service)

[3] = target: T3, panel of 370 protein kinases (Homo sapiens, UniProt Q02779); conditions: 2 h, kinase MLK2/MAP3K10; read-out: % Enzyme Activity (relative to DMSO controls)
T3 construct: purchased Reaction Biology Corporation (assay service)

[4] = target: T4, panel of 370 protein kinases (Homo sapiens, UniProt P07333); conditions: 2 h, kinase FMS; read-out: % Enzyme Activity (relative to DMSO controls)
T4 construct: purchased Reaction Biology Corporation (assay service)

[5] = target: T5, panel of 370 protein kinases (Homo sapiens, UniProt Q14680); conditions: 2 h, kinase MELK; read-out: % Enzyme Activity (relative to DMSO controls)
T5 construct: purchased Reaction Biology Corporation (assay service)

[6] = target: T6, panel of 370 protein kinases (Homo sapiens, UniProt P53671); conditions: 2 h, kinase LIMK2; read-out: % Enzyme Activity (relative to DMSO controls)
T6 construct: purchased Reaction Biology Corporation (assay service)

[7] = target: T7, panel of 370 protein kinases (Homo sapiens, UniProt Q8TD08); conditions: 2 h, kinase ERK7/MAPK15; read-out: % Enzyme Activity (relative to DMSO controls)
T7 construct: purchased Reaction Biology Corporation (assay service)

[8] = target: T8, panel of 370 protein kinases (Homo sapiens, UniProt Q00535); conditions: 2 h, read-out: % Enzyme Activity (relative to DMSO controls)
T8 construct: purchased Reaction Biology Corporation (assay service)
T8 sequence (Q00535 whole entry): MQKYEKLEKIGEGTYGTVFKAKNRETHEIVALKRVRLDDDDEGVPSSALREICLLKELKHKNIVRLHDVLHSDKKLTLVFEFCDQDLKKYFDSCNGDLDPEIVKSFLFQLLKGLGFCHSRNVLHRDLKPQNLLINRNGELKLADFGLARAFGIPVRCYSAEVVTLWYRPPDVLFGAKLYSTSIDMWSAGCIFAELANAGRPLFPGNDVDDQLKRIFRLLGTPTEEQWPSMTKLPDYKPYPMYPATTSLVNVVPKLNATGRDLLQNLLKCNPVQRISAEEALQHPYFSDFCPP

[9] = target: T9, panel of 370 protein kinases (Homo sapiens, UniProt Q9UBS0); conditions: 2 h, kinase p70S6Kb/RPS6KB2; read-out: % Enzyme Activity (relative to DMSO controls)
T9 construct: purchased Reaction Biology Corporation (assay service)

[10] = target: T10, panel of 370 protein kinases (Homo sapiens, UniProt Q9Y2K2); conditions: kinase SIK3
T10 construct: purchased Reaction Biology Corporation (assay service)
T10 sequence (Q9Y2K2 whole entry): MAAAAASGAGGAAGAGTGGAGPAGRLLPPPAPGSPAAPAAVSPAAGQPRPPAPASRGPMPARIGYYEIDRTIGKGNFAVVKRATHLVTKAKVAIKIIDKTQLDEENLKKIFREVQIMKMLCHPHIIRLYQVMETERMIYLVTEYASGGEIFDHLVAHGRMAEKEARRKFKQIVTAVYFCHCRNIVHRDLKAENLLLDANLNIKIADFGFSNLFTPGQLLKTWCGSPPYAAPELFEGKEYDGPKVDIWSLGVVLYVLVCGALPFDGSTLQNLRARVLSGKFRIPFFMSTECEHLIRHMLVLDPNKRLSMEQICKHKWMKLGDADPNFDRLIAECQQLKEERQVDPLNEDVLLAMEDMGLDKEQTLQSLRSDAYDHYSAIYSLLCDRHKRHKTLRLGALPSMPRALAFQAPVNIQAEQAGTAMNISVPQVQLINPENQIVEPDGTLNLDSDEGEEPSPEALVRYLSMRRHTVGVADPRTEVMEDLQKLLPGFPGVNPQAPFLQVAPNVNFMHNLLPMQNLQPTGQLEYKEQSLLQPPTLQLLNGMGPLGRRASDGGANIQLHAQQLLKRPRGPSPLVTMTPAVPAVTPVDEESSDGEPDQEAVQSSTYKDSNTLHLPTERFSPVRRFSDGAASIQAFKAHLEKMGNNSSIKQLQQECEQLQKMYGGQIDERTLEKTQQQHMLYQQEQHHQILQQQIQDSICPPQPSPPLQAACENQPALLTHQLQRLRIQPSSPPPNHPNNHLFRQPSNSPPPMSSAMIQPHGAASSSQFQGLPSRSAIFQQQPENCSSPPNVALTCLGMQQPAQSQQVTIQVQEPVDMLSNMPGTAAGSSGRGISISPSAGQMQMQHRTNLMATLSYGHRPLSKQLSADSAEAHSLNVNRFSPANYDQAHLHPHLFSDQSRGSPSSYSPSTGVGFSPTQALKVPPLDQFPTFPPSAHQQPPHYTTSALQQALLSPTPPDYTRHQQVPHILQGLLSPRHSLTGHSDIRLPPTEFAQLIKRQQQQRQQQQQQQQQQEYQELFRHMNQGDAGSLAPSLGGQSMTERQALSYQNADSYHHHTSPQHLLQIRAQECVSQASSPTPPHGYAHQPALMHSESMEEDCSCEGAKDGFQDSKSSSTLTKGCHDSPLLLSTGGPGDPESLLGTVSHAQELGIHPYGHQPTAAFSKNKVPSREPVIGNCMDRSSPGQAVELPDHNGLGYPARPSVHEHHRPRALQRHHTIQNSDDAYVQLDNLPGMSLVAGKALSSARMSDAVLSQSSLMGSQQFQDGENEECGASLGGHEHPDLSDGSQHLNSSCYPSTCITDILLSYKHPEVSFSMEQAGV

[11] = target: T11, panel of 370 protein kinases (Homo sapiens, UniProt P11362); conditions: 2 h, kinase FGFR1; read-out: % Enzyme Activity (relative to DMSO controls)
T11 construct: purchased Reaction Biology Corporation (assay service)

[12] = target: T12, panel of 370 protein kinases (Homo sapiens, UniProt P49841); conditions: 2 h, kinase GSK3b; read-out: % Enzyme Activity (relative to DMSO controls)
T12 construct: purchased Reaction Biology Corporation (assay service)

[13] = target: T13, panel of 370 protein kinases (Homo sapiens, UniProt Q8IVH8); conditions: kinase GLK/MAP4K3
T13 construct: purchased Reaction Biology Corporation (assay service)
T13 sequence (Q8IVH8 whole entry): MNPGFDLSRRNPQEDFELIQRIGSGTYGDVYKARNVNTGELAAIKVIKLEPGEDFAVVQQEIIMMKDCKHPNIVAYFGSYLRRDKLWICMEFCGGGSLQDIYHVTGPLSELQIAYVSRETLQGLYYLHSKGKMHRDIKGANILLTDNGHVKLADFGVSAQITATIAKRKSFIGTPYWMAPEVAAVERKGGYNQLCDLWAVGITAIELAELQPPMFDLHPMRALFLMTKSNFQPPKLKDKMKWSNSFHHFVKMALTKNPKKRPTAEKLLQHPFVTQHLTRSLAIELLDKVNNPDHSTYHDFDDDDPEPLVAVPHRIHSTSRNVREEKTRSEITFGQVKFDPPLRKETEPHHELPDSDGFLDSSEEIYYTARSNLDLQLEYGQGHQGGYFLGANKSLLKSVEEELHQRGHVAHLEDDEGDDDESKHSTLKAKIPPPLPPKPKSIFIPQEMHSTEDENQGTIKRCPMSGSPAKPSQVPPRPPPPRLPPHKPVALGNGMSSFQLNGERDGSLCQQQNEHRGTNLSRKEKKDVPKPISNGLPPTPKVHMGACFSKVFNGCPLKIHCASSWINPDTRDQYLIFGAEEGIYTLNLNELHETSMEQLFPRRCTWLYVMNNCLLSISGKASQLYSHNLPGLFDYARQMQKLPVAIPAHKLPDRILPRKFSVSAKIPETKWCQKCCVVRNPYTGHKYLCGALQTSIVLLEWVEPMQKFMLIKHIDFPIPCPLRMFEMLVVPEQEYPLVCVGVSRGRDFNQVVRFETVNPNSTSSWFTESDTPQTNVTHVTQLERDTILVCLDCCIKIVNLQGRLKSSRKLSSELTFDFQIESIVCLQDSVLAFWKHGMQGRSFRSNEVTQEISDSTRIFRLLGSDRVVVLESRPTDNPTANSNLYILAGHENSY

[14] = target: T14, panel of 370 protein kinases (Homo sapiens, UniProt Q13554); conditions: 2 h, kinase CAMK2b; read-out: % Enzyme Activity (relative to DMSO controls)
T14 construct: purchased Reaction Biology Corporation (assay service)

[15] = target: T15, panel of 370 protein kinases (Homo sapiens, UniProt Q8N4C8); conditions: 2 h, kinase MINK/MINK1; read-out: % Enzyme Activity (relative to DMSO controls)
T15 construct: purchased Reaction Biology Corporation (assay service)

[16] = target: T16, panel of 370 protein kinases (Homo sapiens, UniProt O15146); conditions: 2 h, kinase MUSK; read-out: % Enzyme Activity (relative to DMSO controls)
T16 construct: purchased Reaction Biology Corporation (assay service)

[17] = target: T17, panel of 370 protein kinases (Homo sapiens, UniProt Q5TCX8); conditions: 2 h, kinase MLK4; read-out: % Enzyme Activity (relative to DMSO controls)
T17 construct: purchased Reaction Biology Corporation (assay service)

[18] = target: T18, panel of 370 protein kinases (Homo sapiens, UniProt Q9H4A3); conditions: kinase WNK1
T18 construct: purchased Reaction Biology Corporation (assay service)
T18 sequence (Q9H4A3 whole entry): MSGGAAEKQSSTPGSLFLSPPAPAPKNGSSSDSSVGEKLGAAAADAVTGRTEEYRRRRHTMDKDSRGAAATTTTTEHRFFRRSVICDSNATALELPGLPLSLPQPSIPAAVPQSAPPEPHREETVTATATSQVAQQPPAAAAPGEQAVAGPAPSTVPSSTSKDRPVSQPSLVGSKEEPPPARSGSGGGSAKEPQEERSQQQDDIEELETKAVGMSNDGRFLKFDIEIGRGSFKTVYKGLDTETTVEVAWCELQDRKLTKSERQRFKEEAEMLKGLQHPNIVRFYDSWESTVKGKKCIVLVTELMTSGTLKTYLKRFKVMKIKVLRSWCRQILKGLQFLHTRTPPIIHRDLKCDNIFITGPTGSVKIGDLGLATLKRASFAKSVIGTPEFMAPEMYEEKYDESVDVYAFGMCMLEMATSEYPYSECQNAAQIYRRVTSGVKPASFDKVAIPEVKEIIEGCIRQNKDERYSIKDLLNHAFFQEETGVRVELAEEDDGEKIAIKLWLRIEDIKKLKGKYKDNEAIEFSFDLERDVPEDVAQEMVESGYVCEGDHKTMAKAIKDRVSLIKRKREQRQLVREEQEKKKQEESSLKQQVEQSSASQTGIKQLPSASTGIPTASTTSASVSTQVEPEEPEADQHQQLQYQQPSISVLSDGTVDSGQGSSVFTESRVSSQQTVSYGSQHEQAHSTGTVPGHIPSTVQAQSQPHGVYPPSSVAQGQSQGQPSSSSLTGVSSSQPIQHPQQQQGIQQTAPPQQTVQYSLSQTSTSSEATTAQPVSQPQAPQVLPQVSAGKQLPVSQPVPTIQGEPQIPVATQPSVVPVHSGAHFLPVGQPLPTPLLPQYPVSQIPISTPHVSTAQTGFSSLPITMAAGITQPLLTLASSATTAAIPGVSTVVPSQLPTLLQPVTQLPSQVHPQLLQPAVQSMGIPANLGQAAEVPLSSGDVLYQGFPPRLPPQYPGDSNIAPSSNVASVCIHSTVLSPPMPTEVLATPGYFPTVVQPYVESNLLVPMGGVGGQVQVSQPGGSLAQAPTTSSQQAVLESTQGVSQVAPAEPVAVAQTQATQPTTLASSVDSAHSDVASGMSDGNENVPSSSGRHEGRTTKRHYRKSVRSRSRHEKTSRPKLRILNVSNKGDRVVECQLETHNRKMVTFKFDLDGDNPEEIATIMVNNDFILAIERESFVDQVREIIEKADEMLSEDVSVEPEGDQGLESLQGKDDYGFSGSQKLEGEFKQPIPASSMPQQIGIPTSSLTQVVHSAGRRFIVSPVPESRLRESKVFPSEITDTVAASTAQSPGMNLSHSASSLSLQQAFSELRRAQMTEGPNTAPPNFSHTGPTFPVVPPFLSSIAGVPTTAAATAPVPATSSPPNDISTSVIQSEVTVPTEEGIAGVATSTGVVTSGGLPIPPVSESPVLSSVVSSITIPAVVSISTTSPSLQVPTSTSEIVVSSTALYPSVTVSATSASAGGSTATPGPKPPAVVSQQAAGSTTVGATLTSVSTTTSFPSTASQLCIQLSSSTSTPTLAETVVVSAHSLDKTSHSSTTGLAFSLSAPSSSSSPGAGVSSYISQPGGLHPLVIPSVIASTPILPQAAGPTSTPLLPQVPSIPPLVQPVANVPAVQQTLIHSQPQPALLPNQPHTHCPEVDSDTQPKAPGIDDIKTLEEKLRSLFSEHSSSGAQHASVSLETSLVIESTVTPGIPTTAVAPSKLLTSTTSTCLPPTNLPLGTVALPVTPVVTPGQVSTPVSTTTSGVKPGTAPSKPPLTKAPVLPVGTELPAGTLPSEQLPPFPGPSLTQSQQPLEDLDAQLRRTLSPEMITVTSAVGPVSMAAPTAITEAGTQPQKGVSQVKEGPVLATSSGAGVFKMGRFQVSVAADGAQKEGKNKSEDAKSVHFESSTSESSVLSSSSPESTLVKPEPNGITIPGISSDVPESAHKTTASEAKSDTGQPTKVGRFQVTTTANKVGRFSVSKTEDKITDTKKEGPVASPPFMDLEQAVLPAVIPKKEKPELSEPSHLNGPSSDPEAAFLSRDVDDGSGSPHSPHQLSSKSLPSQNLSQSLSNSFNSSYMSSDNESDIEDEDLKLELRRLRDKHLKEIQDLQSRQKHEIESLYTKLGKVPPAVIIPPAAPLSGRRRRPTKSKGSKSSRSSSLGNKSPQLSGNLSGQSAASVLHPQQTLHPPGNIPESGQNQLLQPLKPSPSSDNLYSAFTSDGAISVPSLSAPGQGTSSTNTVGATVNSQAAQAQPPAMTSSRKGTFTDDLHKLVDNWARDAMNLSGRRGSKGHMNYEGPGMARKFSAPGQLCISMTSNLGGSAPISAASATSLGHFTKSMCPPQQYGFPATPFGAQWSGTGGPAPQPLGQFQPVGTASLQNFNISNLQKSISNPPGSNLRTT

[19] = target: T19, panel of 370 protein kinases (Homo sapiens, UniProt Q8NEV4); conditions: 2 h, kinase MYO3A; read-out: % Enzyme Activity (relative to DMSO controls)
T19 construct: purchased Reaction Biology Corporation (assay service)

[20] = target: T20, panel of 370 protein kinases (Homo sapiens, UniProt P14616); conditions: 2 h, kinase IRR/INSRR; read-out: % Enzyme Activity (relative to DMSO controls)
T20 construct: purchased Reaction Biology Corporation (assay service)

[21] = target: T21, panel of 370 protein kinases (Homo sapiens, UniProt P19784); conditions: 2 h, kinase CK2a2; read-out: % Enzyme Activity (relative to DMSO controls)
T21 construct: purchased Reaction Biology Corporation (assay service)

`CCN1CCN(C(=O)c2ccc(Nc3ncc(F)c(-c4ccc5nc(N(C)C)sc5c4)n3)nc2)CC1` [YK-2-69] was tested, and the remaining activity at 1 µM [1] was 101%, the remaining activity at 1 µM [2] was 103% and the remaining activity at 1 µM [3] was 81.7%. It also gave a remaining activity at 1 µM [4] of 94.5%, a remaining activity at 1 µM [5] of 101% and a remaining activity at 1 µM [6] of 95%. The remaining activity at 1 µM [7] was 65.5%, the remaining activity at 1 µM ([8]; kinase CDK5/P25) was 92.2% and the remaining activity at 1 µM ([8]; kinase CDK5/p35) was 90%. For the same compound, the remaining activity at 1 µM [9] was 99.4%, the “% Enzyme Activity (relative to DMSO controls)” value [10] was 100.12% and 97.59% and the remaining activity at 1 µM [11] was 76.5%. The remaining activity at 1 µM [12] was 60.8%, the “% Enzyme Activity (relative to DMSO controls)” value [13] was 96.94% and 93.55% and the remaining activity at 1 µM [14] was 78.5%. The remaining activity at 1 µM [15] was 100%, the remaining activity at 1 µM [16] was 89.2% and the remaining activity at 1 µM [17] was 104%. The “% Enzyme Activity (relative to DMSO controls)” value [18] was 116.91% and 108.19%, the remaining activity at 1 µM [19] was 103% and the remaining activity at 1 µM [20] was 91.8%. It also gave a remaining activity at 1 µM [21] of 51.4%.
